Reference: US5389644A, “1,4-dihydropyridine compounds” (priority 1992, dated 1995)

Columns and labels:
calcium channel = biological target: T1, calcium channel (Sus scrofa, UniProt A0A8W4FNC0); experiment: Affinity for the calcium channel labelled with [^3 ] PN 200110, aorta smooth muscle microsome preparations; type: binding; conditions: pig aorta smooth muscle microsomes; means of three independent experiments
T1 construct: pig aorta smooth muscle microsome preparations; from tissue; host or cells: pig aorta smooth muscle microsomes
Source text: The results are expressed as IC50 (M) and represent means of three independent experiments.

KB-A1 [1] = experiment: Cytotoxicity: reversal of resistance to adriamycin (reversion factor), line KB-A1; type: cell-based, Human
Method: The parameter measured is the cytotoxicity of the antitumour drug, quantified in the absence and in the presence of the reversing compound. […] The compounds tested for their capacity to reverse the resistance are added at the same time as the cytotoxic agent. The cells are then incubated for 4 days.

Plasmodium falciparum = conditions: literature (Krogstad; Martin; Deloron); cited from earlier work
DC-3F/AD = experiment: Cytotoxicity: reversal of resistance to actinomycin D (reversion factor), line DC-3F/AD; type: cell-based, Chinese hamster
Method: The parameter measured is the cytotoxicity of the antitumour drug, quantified in the absence and in the presence of the reversing compound. Two resistant cell lines were used: 1 Chinese hamster lung line, DC-3F/AD, the resistance of which was induced by actinomycin D. […] The compounds tested for their capacity to reverse the resistance are added at the same time as the cytotoxic agent. The cells are then incubated for 4 days.

KB-A1 [2] = experiment: Flow cytometry: intracellular accumulation of ADR, line KB-A1; type: cell-based, Human; conditions: ADR 50 μM, 5 hours
Method: Also measured was the effect of the compounds on the intracellular concentration of adriamycin. […] By measuring that fluorescence, it is thus possible to obtain a relative measurement of the intracellular concentration of ADR. […] The cells (5×10^5 per ml) were exposed simultaneously to ADR at a fixed concentration (50 μM) and to the tested compounds at various concentrations. After 5 hours' incubation, the intracellular accumulation of ADR was evaluated by FCM. […] The results were presented in the form of linear histograms of the intracellular ADR fluorescence. Expression of the results: for each of the histograms the mean fluorescence per channel (MEAN) was determined by the computer of the apparatus. For all experiments: a negative control (cells without ADR) fixed the autofluorescence threshold. a positive control (cells with ADR) determined the MEAN value=MN1. the "test" tubes (cells with ADR and with compound) were used to determine, for each of the compounds and at each of the concentrations, the MEAN values=MN2. The results are expressed in the form of variations from the mean fluorescence obtained for each of the "test" tubes (MN2) in relation to the mean fluorescence obtained with the positive control (MN1): VAR-MEAN=MN2-MN1. The measured parameter is thus the increase in ADR fluorescence in the presence of the tested compounds.

P 388 = experiment: In vivo increase in antitumour activity of vincristine, sensitive line P388; design: species or system murine leukaemia in female B6D2F1 mice; conditions: compound 150 mg/kg p.o.
Method: (§1) The sensitive parent line P 388 (murine leukaemia) and the sub-line resistant to vincristine, P 388/VCR, were supplied by NCI (Frederick, USA). The tumour cells (10^6 cells) were inoculated on day 0 into the indraperitoneal cavity of female B6D2F1 mice (Iffa Credo, France) weighing from 18 to 20 g (groups of 8 to 10 animals).
Every day for 4 days, starting from day 1, the animals received: […]
(§2) 30 to 60 minutes later, an administration by the i.p. route of 0.25 mg/kg of vincristine (used as a reference antitumour agent).
(§3) The antitumour activity is expressed as follows: [formula]
(§4) The values are mean values obtained in independent experiments (# sem when n is greater than or equal to 3).
Using the sensitive line (P388) the tested compounds of the invention increase considerably the sensitivity of the cells to vincristine.

P 388/VCR = experiment: In vivo increase in antitumour activity of vincristine, resistant line P 388/VCR; design: species or system murine leukaemia in female B6D2F1 mice
Source text: This study was completed by an in vivo study, using a murine leukaemia resistant to vincristine (P 388/VCR) and using the compounds of the present invention in association with vincristine.
as §1
Every day for 4 days, starting from day 1, the animals received:
an administration of 25 to 150 mg/kg by i.p., p.o. or i.v. route of the compound of the present invention to be tested, as mentioned in the table 4a; then
as §2, §3, §4

[3] = with VCR […] i.p., compound 50 mg/kg i.p.
[4] = with VCR […] i.p., compound 150 mg/kg p.o.

T1 sequence (A0A8W4FNC0 1-2067): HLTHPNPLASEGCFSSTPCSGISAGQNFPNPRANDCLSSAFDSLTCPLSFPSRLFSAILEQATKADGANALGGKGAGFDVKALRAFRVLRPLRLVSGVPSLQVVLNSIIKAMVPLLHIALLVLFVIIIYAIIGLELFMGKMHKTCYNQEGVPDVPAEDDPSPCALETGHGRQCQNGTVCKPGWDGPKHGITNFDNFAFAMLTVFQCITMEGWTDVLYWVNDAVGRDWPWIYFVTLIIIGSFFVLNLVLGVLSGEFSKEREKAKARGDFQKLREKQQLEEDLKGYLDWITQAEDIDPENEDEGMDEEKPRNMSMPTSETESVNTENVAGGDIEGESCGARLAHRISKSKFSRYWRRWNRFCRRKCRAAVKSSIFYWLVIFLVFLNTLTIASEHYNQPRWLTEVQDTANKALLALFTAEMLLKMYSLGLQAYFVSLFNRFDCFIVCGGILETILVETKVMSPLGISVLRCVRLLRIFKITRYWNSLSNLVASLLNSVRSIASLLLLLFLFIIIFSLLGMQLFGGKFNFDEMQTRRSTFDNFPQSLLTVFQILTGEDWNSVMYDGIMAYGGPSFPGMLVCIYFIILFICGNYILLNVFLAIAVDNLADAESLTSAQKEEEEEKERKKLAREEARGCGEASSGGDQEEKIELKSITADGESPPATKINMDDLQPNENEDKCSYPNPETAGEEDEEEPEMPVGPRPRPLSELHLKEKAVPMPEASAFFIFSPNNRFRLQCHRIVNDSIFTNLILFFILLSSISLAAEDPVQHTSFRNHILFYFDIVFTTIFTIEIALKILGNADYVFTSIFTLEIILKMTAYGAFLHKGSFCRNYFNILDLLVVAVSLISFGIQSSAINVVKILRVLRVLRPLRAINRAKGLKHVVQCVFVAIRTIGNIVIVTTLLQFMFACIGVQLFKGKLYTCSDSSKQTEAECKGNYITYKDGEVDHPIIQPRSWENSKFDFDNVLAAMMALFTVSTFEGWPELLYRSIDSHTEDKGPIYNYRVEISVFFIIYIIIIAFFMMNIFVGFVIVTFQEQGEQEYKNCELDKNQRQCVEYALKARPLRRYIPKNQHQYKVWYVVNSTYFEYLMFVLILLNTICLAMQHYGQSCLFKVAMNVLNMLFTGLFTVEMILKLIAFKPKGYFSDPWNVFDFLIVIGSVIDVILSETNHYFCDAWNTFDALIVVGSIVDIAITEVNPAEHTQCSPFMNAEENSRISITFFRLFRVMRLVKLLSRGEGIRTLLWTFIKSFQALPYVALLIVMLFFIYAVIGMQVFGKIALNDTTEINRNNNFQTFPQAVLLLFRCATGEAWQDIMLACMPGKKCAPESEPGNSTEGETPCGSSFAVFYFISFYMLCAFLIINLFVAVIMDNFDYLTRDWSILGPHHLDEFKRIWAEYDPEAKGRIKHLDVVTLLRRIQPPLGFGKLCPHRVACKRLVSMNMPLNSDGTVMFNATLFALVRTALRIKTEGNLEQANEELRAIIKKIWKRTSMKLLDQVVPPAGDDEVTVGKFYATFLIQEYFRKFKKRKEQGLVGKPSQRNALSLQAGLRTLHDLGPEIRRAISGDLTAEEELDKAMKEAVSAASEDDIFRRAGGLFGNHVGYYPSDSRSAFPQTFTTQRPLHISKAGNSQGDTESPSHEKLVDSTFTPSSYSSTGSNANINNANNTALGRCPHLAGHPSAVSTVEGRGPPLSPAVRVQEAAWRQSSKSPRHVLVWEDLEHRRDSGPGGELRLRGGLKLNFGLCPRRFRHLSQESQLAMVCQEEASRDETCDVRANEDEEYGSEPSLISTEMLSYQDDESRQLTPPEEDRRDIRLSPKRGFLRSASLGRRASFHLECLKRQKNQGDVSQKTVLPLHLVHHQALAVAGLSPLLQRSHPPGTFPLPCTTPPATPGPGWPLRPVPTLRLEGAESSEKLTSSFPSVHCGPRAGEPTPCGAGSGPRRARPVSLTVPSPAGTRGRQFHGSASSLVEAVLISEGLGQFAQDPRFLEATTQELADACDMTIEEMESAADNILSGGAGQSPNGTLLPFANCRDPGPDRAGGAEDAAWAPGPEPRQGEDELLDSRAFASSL

SMILES | IC50 (calcium channel) | reversion factor (RF) (KB-A1 [1]; compound 1 μM) | reversion factor (RF) (KB-A1 [1]; compound 5 μM) | sensitivity of a chloroquine-resistant line to chloroquine (Plasmodium falciparum) | reversion factor (RF) (DC-3F/AD; compound 1 μM) | reversion factor (RF) (DC-3F/AD; compound 5 μM) | increase in the ADR fluorescence (VAR-MEAN) (KB-A1 [2]; compound 1 μM) | increase in the ADR fluorescence (VAR-MEAN) (KB-A1 [2]; compound 5 μM) | increase in the ADR fluorescence (VAR-MEAN) (KB-A1 [2]; compound […]) | Survivors on day 60 (P 388; VCR 0) | T/C (P 388; VCR 0) | Survivors on day 60 (P 388; with VCR […] i.p.) | T/C (P 388; with VCR […] i.p.) | T/C (P 388/VCR; VCR 0, compound 50 mg/kg i.p.) | T/C (P 388/VCR; VCR 0, compound 150 mg/kg p.o.) | T/C (P 388/VCR; [3]) | T/C (P 388/VCR; [4])
CCOC(=O)C1=C(COCCOCCNCCc2ccccn2)NC(C)=C(C(=O)OC)C1c1cccc(Cl)c1Cl (single isomer, unassigned) [Example 20, d-2-{2-[[2-(2-(N-pyrid-2-yl)ethylamino)ethoxy]ethoxy]methyl}-4-(2,3-dichlorophenyl)-3-ethoxycarbonyl-5-methoxycarbonyl-6-methyl-1,4-dihydropyridine] | 2.1 µM | – | – | – | – | – | – | – | – | – | – | – | – | – | – | – | –
CCOC(=O)C1=C(COCCN)NC(C)=C(C(=O)OC)C1c1ccccc1Cl (centres unmarked) [AMLODIPINE, amlodipine, reference compound] | – | 1.5 | 5.9 | restores the sensitivity of a line resistant to chloroquine | 1.0 | 2.6 | 0.0 | 4.7 | 2.1 | – | – | – | – | – | – | – | –
CCOC(=O)C1=C(COCCOCCNCc2ccc([N+](=O)[O-])cc2)NC(C)=C(C(=O)OC)C1c1cccc(Cl)c1Cl (stereo not drawn) [Example 1, d-2-{[2-(2-(N-p-nitrobenzylamino)ethoxy)ethoxy]methyl}-4-(2,3-dichlorophenyl)-3-ethoxycarbonyl-5-methoxycarbonyl-6-methyl-1,4-dihydropyridine] | 1.6 µM | 32.1 | 640.5 | – | 21.0 | 2,613.2 | 5.5 | 45.7 | 26.1 | 0/8 | 99% | 4/8 | > 532% | 107% | 99% | 171% | 185%
CCOC(=O)C1=C(COCCOCCNCc2ccc3ccccc3c2)NC(C)=C(C(=O)OC)C1c1cccc(Cl)c1Cl (stereo not drawn) [Example 12, d-2-{[2-(2-(N-naphth-2-ylmethylamino)ethoxy)ethoxy]methyl}-4-(2,3-dichlorophenyl)-3-ethoxycarbonyl-5-methoxycarbonyl-6-methyl-1,4-dihydropyridine] | 1.3 µM | 1.2 | 125.4 | – | 1.1 | 1,320.1 | – | – | – | – | – | – | – | – | – | – | –
CCOC(=O)C1=C(COCCOCCNCc2ccsc2)NC(C)=C(C(=O)OC)C1c1cccc(Cl)c1Cl (stereo not drawn) [Example 14, d-2-{[2-(2-(N-thien-3-ylmethylamino)ethoxy)ethoxy]methyl}-4-(2,3-dichlorophenyl)-3-ethoxycarbonyl-5-methoxycarbonyl-6-methyl-1,4-dihydropyridine] | 1 µM | 22.7 | 169.4 | – | 8.2 | 4,463.2 | 2.4 | 20.5 | 8.2 | – | 95% | 4/8 | > 587% | 99% | 103% | 164% | 200%
CCOC(=O)C1=C(COCCOCCNCc2ccccn2)NC(C)=C(C(=O)OC)C1c1cccc(Cl)c1Cl (stereo not drawn) [Example 16, d-2-{[2-(2-(N-pyrid-2-ylmethylamino)ethoxy)ethoxy]methyl}-4-(2,3-dichlorophenyl)-3-ethoxycarbonyl-5-methoxycarbonyl-6-methyl-1,4-dihydropyridine] | 1.6 µM | 13.9 | 122.4 | – | 3.4 | 8,248.4 | – | – | – | – | – | – | – | – | – | – | –
CCOC(=O)C1=C(COCCOCCNCc2cccnc2)NC(C)=C(C(=O)OC)C1c1cccc(Cl)c1Cl (stereo not drawn) [Example 17, d-2-{[2-(2-(N-pyrid-3-ylmethylamino)ethoxy)ethoxy]methyl}-4-(2,3-dichlorophenyl)-3-ethoxycarbonyl-5-methoxycarbonyl-6-methyl-1,4-dihydropyridine] | 1.4 µM | 10.5 | 120.7 | – | 3.7 | 8,600.0 | – | – | – | – | – | – | – | – | – | – | –
CCOC(=O)C1=C(COCCOCCNCc2ccnc3ccccc23)NC(C)=C(C(=O)OC)C1c1cccc(Cl)c1Cl (stereo not drawn) [Example 18, d-2-{[2-(2-(N-quinol-4-ylmethylamino)ethoxy)ethoxy]methyl}-4-(2,3-dichlorophenyl)-3-ethoxycarbonyl-5-methoxycarbonyl-6-methyl-1,4-dihydropyridine] | 1.1 µM | 4.3 | 348.2 | – | 3.3 | 5,018.4 | – | – | – | – | – | – | – | – | – | – | –
CCOC(=O)C1=C(COCCOCCNCc2nccc3ccccc23)NC(C)=C(C(=O)OC)C1c1cccc(Cl)c1Cl (stereo not drawn) [Example 19, d-2-{[2-(2-(N-isoquinol-1-ylmethylamino)ethoxy)ethoxy]methyl}-4-(2,3-dichlorophenyl)-3-ethoxycarbonyl-5-methoxycarbonyl-6-methyl-1,4-dihydropyridine] | 3.2 µM | 3.6 | 140.5 | – | 1.5 | 1,701.7 | 9.4 | 34.7 | 15.7 | – | – | – | – | – | – | – | –
CCOC(=O)C1=C(COCCOCCNCc2c[nH]c3ccccc23)NC(C)=C(C(=O)OC)C1c1cccc(Cl)c1Cl (stereo not drawn) [Example 22, d-2-{[2-(2-[N-(indol-3-yl)methylamino]ethoxy)ethoxy]methyl}-4-(2,3-dichlorophenyl)-3-ethoxycarbonyl-5-methoxycarbonyl-6-methyl-1,4-dihydropyridine] | 3.3 µM | – | – | – | – | – | – | – | – | – | – | – | – | – | – | – | –
CCOC(=O)C1=C(COCCOCCNCc2cnc3ccccc3c2)NC(C)=C(C(=O)OC)C1c1cccc(Cl)c1Cl (stereo not drawn) [Example 23, d-2-{[2-(2-[N-(quinol-3-yl)methylamino]ethoxy)ethoxy]methyl}-4-(2,3-dichlorophenyl)-3-ethoxycarbonyl-5-methoxycarbonyl-6-methyl-1,4-dihydropyridine] | 2 µM | 19.6 | 1,035.8 | – | 10.2 | 2,304.0 | – | – | – | – | – | – | – | – | – | – | –
